Measurements taken from US20030100997A1, “Matrix assays in genomically indexed cells” (priority 2001, published 2003).
Values joined by “and” are separate entries in the source; they are usually repeats but may differ in a detail not shown here. Identical values can stand only once.

What was measured:
Type in all cases: cell-based
NTera-2 = experiment: calcium mobilization (FLIPR, Fluo-3) in NTera-2; details: for calcium mobilization, Percent of Control: NTera-2; for effect on the response to ionomycin in NTera-2 cells: antagonist at 10 uM, cells do not express the H1 receptor
Protocol: (§1) The above panel of 10 cell lines was plated in 96-well black, clear-bottomed tissue culture-treated plates (Molecular Devices, Sunnyvale, Calif. with the number of cells per well indicated in Table 1. Cells were maintained overnight at 37° C., 5%CO2 in a humidified incubator. Media was removed and the cells were then incubated in Hanks balanced salt solution (Invitrogen, Carlsbad Calif.)/10 mM HEPES pH 7.4 containing 0.04% Pluronic Acid (Molecular Probes, Eugene Oreg.) and 4 uM Fluor-3AM (Molecular Probes, Eugene Oreg.) for one hour at 37° C.
(§2) Antagonists were added to the indicated concentration and the cells incubated at room temperature for 20 minutes. After 10 seconds of baseline read collection, agonists were added on a FLIPR instrument (Molecular Devices, Sunnyvale, Calif.) and data were collected for a total of 3.5 minutes. The fluorescence emission was normalized to initial intensity and the sum of the signal over the entire time period was exported and used for determining percent of control responses using the following formula: Percent of Control=(Sample-unstimulated cells)/(ionomycin treated cells-unstimulated cells). […] Calcium mobilization was measured as described above. […]

panel of 10 cell lines = experiment: calcium mobilization profile across the panel of 10 cell lines; details: for effect on calcium responses to histamine: histamine-induced calcium mobilization, panel of 10 cell lines, antagonist 1 or 10 uM
Protocol: as §1
(§3) Antagonists were added to the indicated concentration and the cells incubated at room temperature for 20 minutes. After 10 seconds of baseline read collection, agonists were added on a FLIPR instrument (Molecular Devices, Sunnyvale, Calif.) and data were collected for a total of 3.5 minutes. The fluorescence emission was normalized to initial intensity and the sum of the signal over the entire time period was exported and used for determining percent of control responses using the following formula: Percent of Control=(Sample-unstimulated cells)/(ionomycin treated cells-unstimulated cells). […] Calcium mobilization was measured as described above.
(§4) Expression of the target H1 receptor was measured by RT-PCR of mRNA samples from each cell line, as follows.

SK-Hep-1 = experiment: calcium mobilization (FLIPR, Fluo-3) in SK-Hep-1; details: agonist alone (buffer), 10 uM, 100 = 10 uM ionomycin
Protocol: as §1, §3

SaOS-2 = experiment: calcium mobilization (FLIPR, Fluo-3) in SaOS-2; details: for calcium mobilization, Percent of Control: SaOS-2; for effect on responses to bradykinin in SaOS-2 cells: antagonist at 10 uM
Protocol: as §1, §2

HBL-100 = experiment: calcium mobilization (FLIPR, Fluo-3) in HBL-100; details: for calcium mobilization, Percent of Control: HBL-100; for effect on responses to bradykinin in HBL-100 cells: antagonist at 10 uM
Protocol: as §1, §2

PC-3 = experiment: calcium mobilization (FLIPR, Fluo-3) in PC-3
Protocol: as §1, §2

COLO320 = experiment: calcium mobilization (FLIPR, Fluo-3) in COLO320
Protocol: as §1, §3, §4

PANC-1 = experiment: calcium mobilization (FLIPR, Fluo-3) in PANC-1
Protocol: as §1, §2

NCI-H460 = experiment: calcium mobilization (FLIPR, Fluo-3) in NCI-H460
Protocol: as §1, §2

Jurkat = experiment: calcium mobilization (FLIPR, Fluo-3) in Jurkat
Protocol: as §1, §2

T-47D = experiment: calcium mobilization (FLIPR, Fluo-3) in T-47D; details: for calcium mobilization, Percent of Control: T-47D; for effect on the response to ionomycin in T-47D cells: antagonist at 10 uM, cells do not express the H1 receptor
Protocol: as §1, §3, §4

[1] = agonist alone (buffer), 10 uM, 100 = 10 uM ionomycin
[2] = response to 10 uM histamine after antagonist 10 uM, 20 min
[3] = response to 10 uM ionomycin after antagonist 10 uM
[4] = response to 1 uM bradykinin after antagonist 10 uM

CNCCc1cnc[nH]1 [N-a-his, N-alphamethyl histamine]
calcium mobilization, Percent of Control (NTera-2; [1]): 2% of Control | activity in cells that do not express the H1 receptor target (panel of 10 cell lines; agonist example, 10 uM): Neither Compound 1 nor histamine were active | calcium mobilization, Percent of Control (SK-Hep-1): 12% of Control | calcium mobilization, Percent of Control (SaOS-2; [1]): 11% of Control | calcium mobilization, Percent of Control (HBL-100; [1]): 16% of Control | calcium mobilization, Percent of Control (PC-3; [1]): 1% of Control | calcium mobilization, Percent of Control (COLO320; [1]): 1% of Control | calcium mobilization, Percent of Control (PANC-1; [1]): 22% of Control | calcium mobilization, Percent of Control (NCI-H460; [1]): 30% of Control | calcium mobilization, Percent of Control (Jurkat; [1]): 2% of Control | calcium mobilization, Percent of Control (T-47D; [1]): 0% of Control

C[C@@H](N)Cc1c[nH]cn1 [R-a-his, R-alphamethyl histamine]
calcium mobilization, Percent of Control (NTera-2; [1]): 2% of Control | pattern of calcium responses compared with histamine and bradykinin (panel of 10 cell lines; agonist example, 10 uM, 10 cell lines): resembles neither bradykinin nor histamine | calcium mobilization, Percent of Control (SK-Hep-1): −1% of Control | calcium mobilization, Percent of Control (SaOS-2; [1]): 0% of Control | calcium mobilization, Percent of Control (HBL-100; [1]): −1% of Control | calcium mobilization, Percent of Control (PC-3; [1]): 0% of Control | calcium mobilization, Percent of Control (COLO320; [1]): 1% of Control | calcium mobilization, Percent of Control (PANC-1; [1]): 0% of Control | calcium mobilization, Percent of Control (NCI-H460; [1]): 0% of Control | calcium mobilization, Percent of Control (Jurkat; [1]): 2% of Control | calcium mobilization, Percent of Control (T-47D; [1]): 0% of Control

NCCc1c[nH]cn1 [histamine]
calcium mobilization, Percent of Control (NTera-2; [1]): 0% of Control | activity in cells that do not express the H1 receptor target (panel of 10 cell lines; agonist example, 10 uM): Neither Compound 1 nor histamine were active | calcium mobilization, Percent of Control (SK-Hep-1): 19% of Control | calcium mobilization, Percent of Control (SaOS-2; [1]): 13% of Control and 18% of Control | calcium mobilization, Percent of Control (HBL-100; [1]): 18% of Control and 27% of Control | calcium mobilization, Percent of Control (PC-3; [1]): 1% of Control | calcium mobilization, Percent of Control (PANC-1; [1]): 26% of Control and 30% of Control | calcium mobilization, Percent of Control (NCI-H460; [1]): 32% of Control and 24% of Control

CN(C)CCC(c1ccc(Cl)cc1)c1ccccn1 (stereo not shown) [Compound C1PhAm, chlorpheniramine]
calcium mobilization, Percent of Control (NTera-2; [2]): 0% of Control | calcium mobilization, Percent of Control (NTera-2; [3]): 99% of Control and 119% of Control | effect on the response to ionomycin in NTera-2 cells (NTera-2): does not affect the ionomycin response | effect on calcium responses to bradykinin (panel of 10 cell lines; bradykinin-induced, antagonist at 10 uM): did not inhibit bradykinin responses | effect on calcium responses to histamine (panel of 10 cell lines): had similar effects to Compound 1 | calcium mobilization, Percent of Control (SaOS-2; [4]): 29% of Control and 23% of Control | calcium mobilization, Percent of Control (SaOS-2; [3]): 96% of Control and 112% of Control | effect on responses to bradykinin in SaOS-2 cells (SaOS-2): does not | calcium mobilization, Percent of Control (HBL-100; [4]): 11% of Control | calcium mobilization, Percent of Control (HBL-100; [2]): 0% of Control | calcium mobilization, Percent of Control (HBL-100; [3]): 87% of Control | effect on responses to bradykinin in HBL-100 cells (HBL-100): does not | calcium mobilization, Percent of Control (PC-3; [4]): 0% of Control | calcium mobilization, Percent of Control (PC-3; [2]): 0% of Control | calcium mobilization, Percent of Control (PC-3; [3]): 104% of Control | calcium mobilization, Percent of Control (COLO320; [4]): 0% of Control | calcium mobilization, Percent of Control (COLO320; [3]): 98% of Control and 95% of Control | calcium mobilization, Percent of Control (PANC-1; [3]): 101% of Control and 104% of Control | calcium mobilization, Percent of Control (NCI-H460; [3]): 73% of Control and 96% of Control | calcium mobilization, Percent of Control (Jurkat; [4]): 12% of Control and 10% of Control | calcium mobilization, Percent of Control (Jurkat; [2]): 8% of Control and 5% of Control | calcium mobilization, Percent of Control (Jurkat; [3]): 70% of Control and 123% of Control | calcium mobilization, Percent of Control (T-47D; [3]): 102% of Control | effect on the response to ionomycin in T-47D cells (T-47D): does not affect the ionomycin response

COc1ccc2c(c1)CC[C@@H]1[C@@H]2CC[C@]2(C)[C@@H](NCCCCCCN3C(=O)C=CC3=O)CC[C@@H]12 [Compound U73122, U73122]
calcium mobilization, Percent of Control (NTera-2; [4]): 1% of Control | calcium mobilization, Percent of Control (NTera-2; [2]): 2% of Control | calcium mobilization, Percent of Control (NTera-2; [3]): 72% of Control | effect on the response to ionomycin in NTera-2 cells (NTera-2): partially inhibit the response to ionomycin | specificity as inhibitor of histamine signaling through the H1 receptor (panel of 10 cell lines; compared with chlorpheniramine): less specific than chlorpheniramine | effect on calcium responses to histamine (panel of 10 cell lines): inhibit responses to histamine | calcium mobilization, Percent of Control (SaOS-2; [4]): 2% of Control | calcium mobilization, Percent of Control (SaOS-2; [2]): 0% of Control | calcium mobilization, Percent of Control (SaOS-2; [3]): 71% of Control | effect on responses to bradykinin in SaOS-2 cells (SaOS-2): inhibits the responses | effect on responses to bradykinin in HBL-100 cells (HBL-100): inhibits the responses | calcium mobilization, Percent of Control (PC-3; [4]): 0% of Control | calcium mobilization, Percent of Control (PC-3; [2]): 0% of Control | calcium mobilization, Percent of Control (PC-3; [3]): 100% of Control | calcium mobilization, Percent of Control (COLO320; [4]): 5% of Control | calcium mobilization, Percent of Control (COLO320; [2]): 2% of Control | calcium mobilization, Percent of Control (COLO320; [3]): 73% of Control | calcium mobilization, Percent of Control (PANC-1; [4]): 0% of Control | calcium mobilization, Percent of Control (PANC-1; [2]): 2% of Control | calcium mobilization, Percent of Control (PANC-1; [3]): 89% of Control | calcium mobilization, Percent of Control (NCI-H460; [4]): 1% of Control | calcium mobilization, Percent of Control (NCI-H460; [2]): 2% of Control | calcium mobilization, Percent of Control (NCI-H460; [3]): 102% of Control | calcium mobilization, Percent of Control (Jurkat; [4]): 52% of Control | calcium mobilization, Percent of Control (Jurkat; [2]): 2% of Control | calcium mobilization, Percent of Control (Jurkat; [3]): 52% of Control | calcium mobilization, Percent of Control (T-47D; [4]): 1% of Control | calcium mobilization, Percent of Control (T-47D; [2]): 1% of Control | calcium mobilization, Percent of Control (T-47D; [3]): 88% of Control | effect on the response to ionomycin in T-47D cells (T-47D): partially inhibit the response to ionomycin

C[C@H](CCC(=O)O)C[C@H](C)C[C@H](C)C(=O)/C=C(\O)[C@H](C)C[C@H](C)C/C=C/[C@@H](C)[C@@H](O)[C@@H](C)[C@@H](O)C[C@@H]1CC[C@@](C)([C@H]2CC[C@@](C)([C@@H](C)O)O2)O1 [ionomycin]
calcium mobilization, Percent of Control (NTera-2; [1]): 100% of Control | calcium mobilization, Percent of Control (SK-Hep-1): 100% of Control | calcium mobilization, Percent of Control (SaOS-2; [1]): 100% of Control | calcium mobilization, Percent of Control (HBL-100; [1]): 100% of Control | calcium mobilization, Percent of Control (PC-3; [1]): 100% of Control | calcium mobilization, Percent of Control (COLO320; [1]): 100% of Control | calcium mobilization, Percent of Control (PANC-1; [1]): 100% of Control | calcium mobilization, Percent of Control (NCI-H460; [1]): 100% of Control | calcium mobilization, Percent of Control (Jurkat; [1]): 100% of Control | calcium mobilization, Percent of Control (T-47D; [1]): 100% of Control
